Source: PMC11864979, “First-in-class ultralong-target-residence-time p38α inhibitors as a mitosis-targeted therapy for colorectal cancer” (Nature Cancer, 2025)
“And” between values parts separate entries of the source, which are not always exact repeats. Identical values can stand only once. Like-named read-outs stand apart in the source and are kept apart here.

Columns and labels:
[1] = test system: HT-29; assay: cell viability in human CRC cell line HT-29; format: cell-based; details: ED Fig. 9h, replicates; for viability at 0.0137 µM / viability at 0.0412 µM / viability at 0.1235 µM / viability at 0.3704 µM / viability at 1.1111 µM / viability at 3.3333 µM / viability at 10 µM: Homo sapiens; for viability at 0.0137 µM: HT-29, read-out: HT-29 Cell viability (%), 0.0137 µM; for viability at 0.0412 µM: HT-29, read-out: HT-29 Cell viability (%), 0.0412 µM; for viability at 0.1235 µM: HT-29, read-out: HT-29 Cell viability (%), 0.1235 µM; for viability at 0.3704 µM: HT-29, read-out: HT-29 Cell viability (%), 0.3704 µM; for viability at 1.1111 µM: HT-29, read-out: HT-29 Cell viability (%), 1.1111 µM; for viability at 3.3333 µM: HT-29, read-out: HT-29 Cell viability (%), 3.3333 µM; for viability at 10 µM: HT-29, read-out: HT-29 Cell viability (%), 10.0000 µM
Experimental: (§1) To generate KAP^2D cells, KAP organoids were isolated from Matrigel, fragmented by mechanical dissociation and plated without any extracellular matrix on common cell culture dishes. Phoenix-Eco packaging cells (CRL-3214), HCT-15 (CCL-225), HCT 116 (CCL-247), COLO 205 (CCL-222), LS 174T (CL-188), RKO (CRL-2577) and HT-29 (HTB-38) were obtained from the American Type Culture Collection. The cells were cultured at 37 °C and 7% CO2 with RPMI (KAP^2D cells) or DMEM (other cell lines), supplemented with 10% FBS and penicillin–streptomycin. KAP^2D cells were authenticated using PCR (Kras locus and Trp53 locus). Phoenix-Eco packaging cells and HCT-15, HCT 116, COLO 205, LS 174T, RKO and HT-29 cells were authenticated by the provider using short tandem repeat profiling. No commonly misidentified cell lines were used. Mycoplasma contamination was excluded by a PCR-based analysis.
(§2) For in vitro treatment studies, organoids were mechanically dissociated and digested using TrypLE supplemented with 100 µg ml^−1 DNaseI and 10.5 µM Y-27632 dihydrochloride (Invitrogen) at 37 °C. A total of 1,000–2,000 single cells were plated per well in white 96-well plates (Greiner) in culture medium containing 10% GFR Matrigel or Cultrex BME. The treatment with doxycycline (5 µg ml^−1), pharmacological inhibitors or corresponding volumes of DMSO was started 24 h after plating. Doxycycline was obtained from Sigma-Aldrich. […] Cell viability was measured by means of CellTiter-Glo 3D or CellTiter-Glo 2.0 reagent (Promega) according to the manufacturers’ instructions and the Infinite M Plex reader (Tecan, i-control version 3.9.1 software). Results were normalized to vehicle (DMSO) or to shNC. For cell-doubling assays, the cell number was quantified at the corresponding time points using Guava EasyCyte flow cytometer (Luminex, CytoSoft v5.2 software).

[2] = test system: COLO 205; assay: cell viability in human CRC cell line COLO 205; format: cell-based; details: for COLO 205 Cell viability (%): 4 d
Experimental: as §1, §2

[3] = test system: PDO6; assay: cell viability in patient-derived CRC organoids PDO6; format: cell-based, human
Experimental: as §2

[4] = test system: KAP^2D cells; assay: annexin V apoptosis analysis in KAP^2D cells; format: cell-based, mouse; details: Fig. 5a
Experimental: Apoptosis was analyzed with the FITC annexin V apoptosis detection kit (Biolegend). Both measurements were performed with FACS Canto II (BD) and physical parameters were used to exclude cell debris and cell doublets.

[5] = biological target: p38α (Homo sapiens, UniProt Q16539); assay: target residence time (TRT) fluorescence polarization jump-dilution assay; format: binding
Experimental: TRTs were determined using a fluorescence polarization assay kit (Transcreener ADP, BellBrook Labs)[29]. […] The formed complex was ‘jump-diluted’ 1:100 (0.5 µl in 49.5 µl) in a 96-half-area-well plate with ATF2 (82 μM), ATP (40 μM) and ADP as the kinase assay detection reagents. The plate was measured every 3 min for 4 h. Fluorescence polarization was detected using the plate reader VictorNivo (PerkinElmer). The data were analyzed using the integrated rate equation in GraphPad Prism version 7.03 software. The residence time was calculated from the reciprocal value of koff.

[6] = test system: KAP^2D cells; assay: quantification of viable KAP^2D cells over time (cell-doubling assay); format: cell-based, mouse; details: Fig. 4i
Experimental: The treatment with doxycycline (5 µg ml^−1), pharmacological inhibitors or corresponding volumes of DMSO was started 24 h after plating. […] Cell viability was measured by means of CellTiter-Glo 3D or CellTiter-Glo 2.0 reagent (Promega) according to the manufacturers’ instructions and the Infinite M Plex reader (Tecan, i-control version 3.9.1 software). Results were normalized to vehicle (DMSO) or to shNC. For cell-doubling assays, the cell number was quantified at the corresponding time points using Guava EasyCyte flow cytometer (Luminex, CytoSoft v5.2 software).

[7] = test system: PDO8; assay: cell viability in patient-derived CRC organoids PDO8; format: cell-based, human
Experimental: as §2

Chain of p38α (Q16539 whole entry): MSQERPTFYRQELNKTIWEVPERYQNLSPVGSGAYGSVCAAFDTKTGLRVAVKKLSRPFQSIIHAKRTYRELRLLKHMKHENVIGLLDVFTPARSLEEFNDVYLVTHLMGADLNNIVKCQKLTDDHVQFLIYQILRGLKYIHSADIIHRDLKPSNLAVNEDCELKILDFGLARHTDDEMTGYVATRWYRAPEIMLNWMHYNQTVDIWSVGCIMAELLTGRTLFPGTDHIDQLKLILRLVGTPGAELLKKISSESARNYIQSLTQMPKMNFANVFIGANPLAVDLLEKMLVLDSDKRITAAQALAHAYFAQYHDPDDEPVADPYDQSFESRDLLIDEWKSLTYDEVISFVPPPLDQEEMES

Compound: O=C1c2ccc(Nc3ccc(F)cc3F)cc2CCc2ccc(OC[C@H](O)CO)cc21 [SKL, skepinone-L, reference compound]
- HT-29 Cell viability (%) ([1]; 3.3333 µM, Repetition): 100.17% and 95.98%
- HT-29 Cell viability (%) ([1]; 3.3333 µM, first experiment): 98.14% and 94.12%
- HT-29 Cell viability (%) ([1]; 10.0000 µM, Repetition): 26.97% and 25.38%
- HT-29 Cell viability (%) ([1]; 10.0000 µM, first experiment): 26.95% and 26.30%
- viability at 0.0137 µM ([1]; Repetition): 95.8%
- viability at 0.0137 µM ([1]; first experiment): 95.5%
- viability at 0.0412 µM ([1]; Repetition): 92.3%
- viability at 0.0412 µM ([1]; first experiment): 93.7%
- viability at 0.1235 µM ([1]; Repetition): 91.3%
- viability at 0.1235 µM ([1]; first experiment): 91.8%
- viability at 0.3704 µM ([1]; Repetition): 97.9%
- viability at 0.3704 µM ([1]; first experiment): 92.5%
- viability at 1.1111 µM ([1]; Repetition): 99.2%
- viability at 1.1111 µM ([1]; first experiment): 99.6%
- viability at 3.3333 µM ([1]; Repetition): 93.3%
- viability at 3.3333 µM ([1]; first experiment): 95.6%
- viability at 10 µM ([1]; Repetition): 28.2%
- viability at 10 µM ([1]; first experiment): 25.2%
- COLO 205 Cell viability (%) ([2]; 0.0137 µM): 96.45% and 96.38% and 97.30% and 129.19% and 99.27% and 94.84%
- COLO 205 Cell viability (%) ([2]; 0.0412 µM): 127.57% and 100.82% and 92.20% and 93.68% and 91.56% and 87.30%
- COLO 205 Cell viability (%) ([2]; 0.1235 µM): 118.98% and 94.94% and 87.73% and 92.65% and 90.17% and 91.06%
- COLO 205 Cell viability (%) ([2]; 0.3704 µM): 128.00% and 91.92% and 96.35% and 88.32% and 91.46% and 92.15%
- COLO 205 Cell viability (%) ([2]; 1.1111 µM): 104.82% and 92.26% and 92.51% and 87.03% and 84.46% and 82.14%
- COLO 205 Cell viability (%) ([2]; 3.3333 µM): 118.94% and 101.69% and 108.96% and 89.84% and 86.56% and 82.40%
- COLO 205 Cell viability (%) ([2]; 10.0000 µM): 88.40% and 89.99% and 81.09% and 75.75% and 75.52%
- viability at 10 µM ([2]; Homo sapiens, COLO 205, 96 h, read-out: COLO 205 Cell viability (%), 10.0000 µM, 4 d): 86.3%
- viability at 1 µM ([3]; Homo sapiens, 96 h, read-out: Cell viability (%), PDO6, 1 µM, 4 days): 112%
- Cell viability (%) ([3]; PDO6, 0.5 µM, 4 d, 0.5 µM): 101.15% and 118.77% and 80.46%
- Cell viability (%) ([3]; PDO6, 1 µM, 4 days, 1 µM): 110.32% and 93.07%
- Annexin V+ cells ([4]; 1 d of treatment): 5.21% and 5.26% and 4.63% and 7.96% and 7.76% and 8.93%
- Annexin V+ cells ([4]; 2 d of treatment): 9.26% and 10.60% and 6.13% and 6.98% and 6.69% and 8.97%
- Annexin V+ cells ([4]; 3 d of treatment): 12.30% and 9.65% and 9.21% and 7.99% and 8.10%
- Annexin V+ cells ([4]; 4 d of treatment): 14.90% and 13.30% and 12.30% and 11.90% and 13.00% and 16.60%
- TRT ([5]; Fig. 2e, replicates): 88.3 s and 94.8 s and 81.2 s
- TRT ([5]; reciprocal of koff): 88 s
- Number of cells ([6]; 0 h of treatment): 41307.05 and 44263.95 and 43595.63 and 48502.24 and 40389.64
- Number of cells ([6]; 12 h of treatment): 65088.74 and 77948.45 and 80933.57 and 91775.55 and 95176.94 and 93698.43
- Number of cells ([6]; 24 h of treatment): 83699.30 and 94240.25 and 95144.88 and 126855.10 and 130387.80 and 122006.30
- Number of cells ([6]; 36 h of treatment): 151900.95 and 118999.57 and 148091.83 and 233974.50 and 200549.50 and 179469.60
- Number of cells ([6]; 48 h of treatment): 325693.88 and 295126.41 and 320338.47 and 303856.40 and 287208.10 and 301764.60
- Number of cells ([6]; 60 h of treatment): 579787.04 and 516216.51 and 567999.66 and 537469.80 and 457898.40 and 474698.40
- Cell viability (%) ([7]; PDO8, 0.5 µM, 4 d, 0.5 µM): 95.66% and 98.53% and 69.31%
- Cell viability (%) ([7]; PDO8, 1 µM, 4 days, 1 µM): 101.75% and 85.55% and 77.65%
